Data reported in patent publication US20230287051A1, “INHIBITORS OF COMPLEMENT FACTOR C3 AND THEIR MEDICAL USES” (ZP SPV 3 K/S, priority 2020, published 2023).
Numbered stars: 1 amine (or outer) side, 2 acyl side, 3 side chain; on linkers, the order of the positions; unused ones are H or OH. Bridge positions count the residues as written; N and C are the ends. Square brackets hold non-standard residues; d marks the D form. Side chains are listed from the residue outwards. Peptide text beside a SMILES is read from it. * marks the point of attachment. Trp(1-Me) = Cn1cc(C[C@H](N)C(=O)O)c2ccccc21; C18 diacid = O=C(O)CCCCCCCCCCCCCCCCC(=O)*; γGlu = O=C(O)[C@H](CCC(=O)[*:2])N[*:1]; AEEA = NCCOCCOCC(=O)O; CH2 = C([*:1])[*:2]; Sar = CNCC(=O)O

Tests used:
Human C3 = target: T1, Human C3 (Homo sapiens, UniProt P01024); experiment: Affinity measurement by surface plasmon resonance with immobilized C3; conditions: SPR, immobilized human C3, 25° C., 1:1 Langmuir binding model, n=>2
T1 construct: purchased Complement tech A113c
Description: Surface plasmon resonance (SPR) was used to characterize peptides with respect to their binding affinity (Kd) for C3.
For interaction experiments, a multi-cycle experiment approach was used and performed using a BiacoreX100™ instrument (GE Healthcare) at 25° C. Peptides were injected in increasing concentration series (5 different concentrations and buffer reference) for 180 seconds at a flow rate of 30 μL/min in a buffer consisting of 50 mM Tris buffer at pH 7.4, with 150 mM NaCl and 0.05% Tween20. This was followed by a dissociation period for 10 min. The C3 surface was regenerated between runs by two consecutive injections of 3 M MgCl2 each for 45 seconds.
Sensorgrams were double-referenced (reference surface, blanks) prior to analysis of the kinetic profiles by globally fitting data to a 1:1 Langmuir binding model to obtain association and dissociation rates for calculation of the equilibrium dissociation constant Kd (Table 3). Each peptide was tested at in at least 2 independent experiments.

[1] = system: classical complement pathway; experiment: In vitro haemolysis assay (inhibition of classical complement pathway); assay type: cell-based; conditions: human serum, sensitized sheep RBC, 30 minutes at 37° C., absorbance at 405 nm, n=>2; read-out: IC50, inhibition of hemolysis
Procedure, shortened: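 Compounds in 9-point serial dilution in Tris/casein buffer pH 7.4 (Ca2+/Mg2+) preincubated 15 min at room temperature with diluted human serum (dilution giving 70-90% maximal haemolysis), then antibody-sensitized sheep RBCs added, 30 min at 37° C. EDTA stop; supernatant haemoglobin read at 405 nm. IC50 from 4PL fit, normalized to controls, n≥2.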

CC[C@H](C)[C@@H]1NC(=O)[C@@H](NC(=O)[C@H](Cc2ccccc2)NC(=O)CNC(=O)[C@H](CO)NC(=O)[C@H](CCC(=O)O)NC(=O)CNC(=O)[C@H](CCC(=O)O)NC(C)=O)CSCSC[C@@H](C(=O)N[C@H](C(=O)N[C@@H](CCC(=O)O)C(=O)NCC(=O)N[C@@H](CCC(=O)O)C(=O)NCCOCCOCC(=O)NCCOCCOCC(=O)N[C@@H](CCCCNC(=O)CC[C@H](NC(=O)CNC(=O)CC[C@H](NC(=O)CCCCCCCCCCCCCCCCC(=O)O)C(=O)O)C(=O)O)C(N)=O)[C@@H](C)O)NC(=O)[C@H](CCCNC(=N)N)NC(=O)[C@H](Cc2c[nH]cn2)NC(=O)[C@H](CCC(=O)O)NC(=O)CN(C)C(=O)[C@H](Cc2c[nH]c3ccccc23)NC(=O)[C@H](CC(=O)O)NC(=O)[C@H](CCC(N)=O)NC(=O)[C@H](Cc2cn(C)c3ccccc23)NC1=O [Compound 27, Ac-EGESGF[C(1)]I[1-Me-Trp]QDW[Sar]EHR[C(1)]TEGE[Peg3][Peg3]-K([17-Carboxy-heptadecanoyl][yGlu]G[yGlu])-NH2] (Ac-EGESGFCI[Trp(1-Me)]QDW[Sar]EHRCTEGE[AEEA][AEEA]K([γGlu-Gly-γGlu-C18 diacid])-NH2; linker 7-17 via CH2)
Kd (Human C3): 17 nM | IC50 [1]: < 100 nM
